Measured values reported in patent US20230233569A1 (Revolution Medicines, Inc., priority 2020, published 2023).
pIC50: −log10 of the molar value. Like-named read-outs stand apart in the source and are kept apart here.

Columns and labels:
Capan-1 (K-Ras G12V) = assay: CellTiter-Glo cell viability assay, 5-day treatment; format: cell-based; conditions: Homo sapiens, CAPAN-1, 120 h, 5-day treatment; read-out: Capan-1 Cell Viability assay data (K-Ras G12V, IC50)
How it was run: (§1)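 Seeded cells received test compound by direct dispensing. On day 5 the plates sat at room temperature approximately 30 minutes, then luminescence was measured. Data were normalized to DMSO and curve-fitted with four parameters.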

NCI-H358 (K-Ras G12C) = assay: as above; format: cell-based; conditions: Homo sapiens, NCI-H358, 120 h, 5-day treatment; read-out: H358 Cell Viability assay data (K-Ras G12C, IC50)
How it was run: as §1

KRAS G12C = KRAS G12C (Homo sapiens, UniProt P01116+P62937, G12C); assay: Disruption of BRAF RBD interaction with Ras (FRET / MOA assay, with Cyclophilin A); format: biochemical
Sequence of KRAS G12C (P01116 1-169 isoform P01116-2 G12C): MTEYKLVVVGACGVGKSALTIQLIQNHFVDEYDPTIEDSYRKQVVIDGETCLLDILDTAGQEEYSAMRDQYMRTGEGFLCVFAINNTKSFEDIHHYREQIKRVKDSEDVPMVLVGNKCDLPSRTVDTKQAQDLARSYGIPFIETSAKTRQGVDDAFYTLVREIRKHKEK
Sequence of KRAS G12C (P62937 whole entry): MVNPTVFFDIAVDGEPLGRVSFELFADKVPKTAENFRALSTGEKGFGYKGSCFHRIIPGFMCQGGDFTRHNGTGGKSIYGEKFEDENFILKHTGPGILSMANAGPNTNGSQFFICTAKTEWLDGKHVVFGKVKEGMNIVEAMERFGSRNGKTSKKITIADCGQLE
How it was run: (§2)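 Biochemical TR-FRET disruption assay: nucleotide-loaded K-Ras with Cyclophilin A and a BRAF RBD construct, compound titrated over 10 points from 30 μM (final).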

KRAS G12D = KRAS G12D (Homo sapiens, UniProt P01116+P62937, G12D); assay: as above; format: biochemical
Sequence of KRAS G12D (P01116 1-169 isoform P01116-2 G12D limits assumed): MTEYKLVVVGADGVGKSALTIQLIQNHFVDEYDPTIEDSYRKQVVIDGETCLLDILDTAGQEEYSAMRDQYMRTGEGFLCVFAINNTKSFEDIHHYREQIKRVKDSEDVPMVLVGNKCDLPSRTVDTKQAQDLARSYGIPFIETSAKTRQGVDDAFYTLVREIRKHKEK
Sequence of KRAS G12D (P62937 whole entry): as the sequence (P62937 whole entry) above
How it was run: as §2

KRAS G12S = KRAS G12S (Homo sapiens, UniProt P01116+P62937, G12S); assay: as above; format: biochemical
Sequence of KRAS G12S (P01116 1-169 isoform P01116-2 G12S limits assumed): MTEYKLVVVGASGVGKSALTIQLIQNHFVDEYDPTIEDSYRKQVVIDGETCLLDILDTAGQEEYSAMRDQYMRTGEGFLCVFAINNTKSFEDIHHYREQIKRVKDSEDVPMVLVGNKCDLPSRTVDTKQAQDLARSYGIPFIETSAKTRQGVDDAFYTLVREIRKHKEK
Sequence of KRAS G12S (P62937 whole entry): as the sequence (P62937 whole entry) above
How it was run: as §2

KRAS G12V = KRAS G12V (Homo sapiens, UniProt P01116+P62937, G12V); assay: as above; format: biochemical
Sequence of KRAS G12V (P01116 1-169 isoform P01116-2 G12V limits assumed): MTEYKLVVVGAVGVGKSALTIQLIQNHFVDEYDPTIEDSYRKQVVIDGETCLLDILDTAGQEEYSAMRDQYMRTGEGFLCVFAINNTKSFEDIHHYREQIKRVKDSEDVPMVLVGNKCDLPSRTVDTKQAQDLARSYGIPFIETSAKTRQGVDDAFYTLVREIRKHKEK
Sequence of KRAS G12V (P62937 whole entry): as the sequence (P62937 whole entry) above
How it was run: as §2

KRAS G13C = KRAS G13C (Homo sapiens, UniProt P01116+P62937, G13C); assay: as above; format: biochemical
Sequence of KRAS G13C (P01116 1-169 isoform P01116-2 G13C): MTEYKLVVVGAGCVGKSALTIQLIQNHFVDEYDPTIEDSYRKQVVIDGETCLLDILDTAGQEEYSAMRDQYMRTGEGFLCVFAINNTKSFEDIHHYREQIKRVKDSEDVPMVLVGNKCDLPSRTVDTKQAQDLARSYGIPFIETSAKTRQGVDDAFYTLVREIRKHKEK
Sequence of KRAS G13C (P62937 whole entry): as the sequence (P62937 whole entry) above
How it was run: as §2

KRAS G13D = KRAS G13D (Homo sapiens, UniProt P01116+P62937, G13D); assay: as above; format: biochemical
Sequence of KRAS G13D (P01116 1-169 isoform P01116-2 G13D limits assumed): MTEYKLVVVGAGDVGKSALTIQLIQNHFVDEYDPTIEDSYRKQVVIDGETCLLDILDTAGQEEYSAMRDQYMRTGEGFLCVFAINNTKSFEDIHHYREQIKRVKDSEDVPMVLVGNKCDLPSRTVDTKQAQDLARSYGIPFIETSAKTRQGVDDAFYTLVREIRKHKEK
Sequence of KRAS G13D (P62937 whole entry): as the sequence (P62937 whole entry) above
How it was run: as §2

KRAS WT = KRAS WT (Homo sapiens, UniProt P01116+P62937); assay: as above; format: biochemical
Sequence of KRAS WT (P01116 1-169 isoform P01116-2 limits assumed): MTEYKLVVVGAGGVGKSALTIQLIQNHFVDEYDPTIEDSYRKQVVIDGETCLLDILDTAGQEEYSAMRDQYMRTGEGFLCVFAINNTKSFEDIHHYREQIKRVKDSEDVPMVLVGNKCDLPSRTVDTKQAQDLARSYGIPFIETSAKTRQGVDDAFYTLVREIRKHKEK
Sequence of KRAS WT (P62937 whole entry): as the sequence (P62937 whole entry) above
How it was run: as §2

NRAS G12C = NRAS G12C (Homo sapiens, UniProt P01111+P62937, G12C); assay: as above; format: biochemical
Sequence of NRAS G12C (P01111 whole entry G12C): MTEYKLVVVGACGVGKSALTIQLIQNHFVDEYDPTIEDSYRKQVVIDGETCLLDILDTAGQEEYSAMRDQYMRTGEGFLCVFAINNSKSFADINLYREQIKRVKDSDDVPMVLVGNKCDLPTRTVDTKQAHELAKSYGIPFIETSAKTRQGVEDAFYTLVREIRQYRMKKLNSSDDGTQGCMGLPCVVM
Sequence of NRAS G12C (P62937 whole entry): as the sequence (P62937 whole entry) above

KRAS Q61H = KRAS Q61H (Homo sapiens, UniProt P01116+P62937, Q61H); assay: as above; format: biochemical
Sequence of KRAS Q61H (P01116 1-169 isoform P01116-2 Q61H limits assumed): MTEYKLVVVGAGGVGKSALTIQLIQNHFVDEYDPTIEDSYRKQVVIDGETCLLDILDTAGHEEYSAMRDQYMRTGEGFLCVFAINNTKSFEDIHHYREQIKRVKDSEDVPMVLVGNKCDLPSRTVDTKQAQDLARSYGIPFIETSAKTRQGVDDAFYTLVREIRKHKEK
Sequence of KRAS Q61H (P62937 whole entry): as the sequence (P62937 whole entry) above
How it was run: (§3)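 IC50 reflects compound-driven Ras:Cyclophilin A ternary complex displacing BRAF RBD, read as lowered TR-FRET ratio relative to DMSO after Eu anti-His (10 nM) and APC anti-GST (50 nM) detection for 1.5 h. Prior incubation 3 h, 25° C, with 12.5 nM GMPPNP-loaded Ras, 50 nM BRAF RBD, 25 μM Cyclophilin A; top compound 30 μM.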

NRAS Q61K = NRAS Q61K (Homo sapiens, UniProt P01111+P62937, Q61K); assay: as above; format: biochemical
Sequence of NRAS Q61K (P01111 whole entry Q61K): as the sequence (P01111 whole entry G12C) above, with C12G, Q61K counted along it
Sequence of NRAS Q61K (P62937 whole entry): as the sequence (P62937 whole entry) above
How it was run: as §3

NRAS Q61R = NRAS Q61R (Homo sapiens, UniProt P01111+P62937, Q61R); assay: as above; format: biochemical
Sequence of NRAS Q61R (P01111 whole entry Q61R): as the sequence (P01111 whole entry G12C) above, with C12G, Q61R counted along it
Sequence of NRAS Q61R (P62937 whole entry): as the sequence (P62937 whole entry) above
How it was run: as §3

NRAS WT = NRAS WT (Homo sapiens, UniProt P01111+P62937); assay: as above; format: biochemical
Sequence of NRAS WT (P01111 whole entry): as the sequence (P01111 whole entry G12C) above, with C12G counted along it
Sequence of NRAS WT (P62937 whole entry): as the sequence (P62937 whole entry) above
How it was run: as §3

[1] = KRAS G12V FRET data IC50, KRAS G12V
[2] = KRAS G13D FRET data IC50, KRAS G13D
[3] = KRAS WT FRET data IC50, KRAS WT
[4] = NRAS G12C FRET data IC50, NRAS G12C
[5] = KRAS Q61H FRET data IC50, KRAS Q61H
[6] = NRAS Q61K FRET data IC50, NRAS Q61K
[7] = NRAS Q61R FRET data IC50, NRAS Q61R
[8] = NRAS WT FRET data IC50, NRAS WT
[9] = read-out: KRAS G12C FRET data, IC50
[10] = read-out: KRAS G12D FRET data, IC50
[11] = read-out: KRAS G12S FRET data, IC50
[12] = KRAS G12V, read-out: KRAS G12V FRET data IC50
[13] = read-out: KRAS G13C FRET data, IC50
[14] = KRAS G13D, read-out: KRAS G13D FRET data IC50
[15] = KRAS WT, read-out: KRAS WT FRET data IC50
[16] = NRAS G12C, read-out: NRAS G12C FRET data IC50
[17] = KRAS Q61H, read-out: KRAS Q61H FRET data IC50
[18] = NRAS Q61K, read-out: NRAS Q61K FRET data IC50
[19] = NRAS Q61R, read-out: NRAS Q61R FRET data IC50
[20] = NRAS WT, read-out: NRAS WT FRET data IC50

| SMILES | pIC50 (Capan-1 (K-Ras G12V)) | pIC50 (NCI-H358 (K-Ras G12C)) | pIC50 (KRAS G12C; [9]) | pIC50 (KRAS G12D; [10]) | pIC50 (KRAS G12S; [11]) | pIC50 (KRAS G12V; [12]) | pIC50 (KRAS G13C; [13]) | pIC50 (KRAS G13D; [14]) | pIC50 (KRAS WT; [15]) | pIC50 (NRAS G12C; [16]) | pIC50 (KRAS Q61H; [17]) | pIC50 (NRAS Q61K; [18]) | pIC50 (NRAS Q61R; [19]) | pIC50 (NRAS WT; [20]) | also measured |
| --- | --- | --- | --- | --- | --- | --- | --- | --- | --- | --- | --- | --- | --- | --- | --- |
| CCn1c(-c2cnccc2COC)c2c3cc(ccc31)-c1cc(O)cc(c1)C[C@H](NC(=O)[C@H](C(C)C)N(C)C(=O)[C@H]1CCN(S(C)(=O)=O)C1)C(=O)N1CCC[C@H](N1)C(=O)OCC(C)(C)C2 [Example A24, (2S)—N-[(8S,14S)-22-ethyl-4-hydroxy-21-[4-(methoxymethyl)pyridin-3-yl]-18,18-dimethyl-9,15-dioxo-16-oxa-10,22,28-triazapentacyclo[18.5.2.1^2,6.1^10,14.0^23,27]nonacosa-1(26),2,4,6(29),20,23(27),24-heptaen-8-yl]-2-{1-[(3S)-1-methanesulfonylpyrrolidin-3-yl]-N-methylformamido}-3-methylbutanamide] | 5.00 to 6.00 | 5.00 to 6.00 | – | – | – | – | – | – | – | – | – | – | – | – | pIC50 (KRAS G12C; KRAS G12C FRET data, IC50): 6.00 to 7.00; pIC50 (KRAS G12D; KRAS G12D FRET data, IC50): 5.00 to 6.00; pIC50 (KRAS G12S; KRAS G12S FRET data, IC50): 6.00 to 7.00; pIC50 (KRAS G12V; [1]): 6.00 to 7.00; pIC50 (KRAS G13C; KRAS G13C FRET data, IC50): 6.00 to 7.00; pIC50 (KRAS G13D; [2]): 6.00 to 7.00; pIC50 (KRAS WT; [3]): 6.00 to 7.00; pIC50 (NRAS G12C; [4]): 6.00 to 7.00; pIC50 (KRAS Q61H; [5]): 7.00 to 8.00; pIC50 (NRAS Q61K; [6]): 6.00 to 7.00; pIC50 (NRAS Q61R; [7]): 6.00 to 7.00; pIC50 (NRAS WT; [8]): 6.00 to 7.00 |
| CCn1c(-c2cccnc2[C@H](C)OC)c2c3cc(ccc31)-c1csc(n1)C[C@H](NC(=O)[C@H](C(C)C)N(C)C(=O)[C@H]1CCN(C(=O)CNC)C1)C(=O)N1CCC[C@H](N1)C(=O)OCC(C)(C)C2 [Example A99] | < 5.00 | < 5.00 | 6.00 to 7.00 | 6.00 to 7.00 | 5.00 to 6.00 | 5.00 to 6.00 | 6.00 to 7.00 | 5.00 to 6.00 | 6.00 to 7.00 | 6.00 to 7.00 | 6.00 to 7.00 | 5.00 to 6.00 | 5.00 to 6.00 | 6.00 to 7.00 | – |
| CCn1c(-c2cnccc2COC)c2c3cc(ccc31)-c1cc(O)cc(c1)C[C@H](NC(=O)[C@H](C(C)C)N1COCC1=O)C(=O)N1CCC[C@H](N1)C(=O)OCC(C)(C)C2 [Example A102] | 6.00 to 7.00 | 5.00 to 6.00 | 6.00 to 7.00 | 6.00 to 7.00 | 6.00 to 7.00 | 6.00 to 7.00 | 7.00 to 8.00 | 6.00 to 7.00 | 6.00 to 7.00 | 6.00 to 7.00 | 7.00 to 8.00 | 6.00 to 7.00 | 6.00 to 7.00 | 6.00 to 7.00 | – |
| CCn1c(-c2cccnc2[C@H](C)OC)c2c3cc(ccc31)-c1csc(n1)C[C@H](NC(=O)[C@H](C(C)C)N(C)C(=O)OC)C(=O)N1CCC[C@H](N1)C(=O)OCC(C)(C)C2 [Example A138] | 7.00 to 8.00 | 7.00 to 8.00 | – | – | – | – | – | – | – | – | – | – | – | – | pIC50 (KRAS G12C; KRAS G12C FRET data, IC50): 6.00 to 7.00; pIC50 (KRAS G12D; KRAS G12D FRET data, IC50): 5.00 to 6.00; pIC50 (KRAS G12S; KRAS G12S FRET data, IC50): 5.00 to 6.00; pIC50 (KRAS G12V; [1]): 6.00 to 7.00; pIC50 (KRAS G13C; KRAS G13C FRET data, IC50): 6.00 to 7.00; pIC50 (KRAS G13D; [2]): 5.00 to 6.00; pIC50 (KRAS WT; [3]): 6.00 to 7.00; pIC50 (NRAS G12C; [4]): 6.00 to 7.00; pIC50 (KRAS Q61H; [5]): 6.00 to 7.00; pIC50 (NRAS Q61K; [6]): 6.00 to 7.00; pIC50 (NRAS Q61R; [7]): 6.00 to 7.00; pIC50 (NRAS WT; [8]): 6.00 to 7.00 |
| CCn1c(-c2cccnc2[C@H](C)OC)c2c3cc(ccc31)-c1nc(cs1)C[C@H](NC(=O)[C@H](C(C)C)N(C)C(C)=O)C(=O)N1CCC[C@H](N1)C(=O)OCC(C)(C)C2 [Example A152] | 6.00 to 7.00 | 6.00 to 7.00 | 5.00 to 6.00 | 5.00 to 6.00 | 5.00 to 6.00 | 5.00 to 6.00 | 5.00 to 6.00 | 5.00 to 6.00 | 5.00 to 6.00 | 5.00 to 6.00 | 6.00 to 7.00 | 6.00 to 7.00 | 5.00 to 6.00 | 5.00 to 6.00 | – |
| CCn1c(-c2cccnc2[C@H](C)OC)c2c3cc(ccc31)-c1cc(O)cc(c1)C[C@H](NC(=O)[C@H](C(C)C)N(C)C(=O)OC1CC1)C(=O)N1CCC[C@H](N1)C(=O)OCC(C)(C)C2 [Example A174] | 6.00 to 7.00 | 6.00 to 7.00 | 6.00 to 7.00 | 6.00 to 7.00 | 6.00 to 7.00 | 6.00 to 7.00 | 6.00 to 7.00 | 6.00 to 7.00 | 6.00 to 7.00 | 6.00 to 7.00 | 7.00 to 8.00 | 6.00 to 7.00 | 6.00 to 7.00 | 6.00 to 7.00 | – |
| CCn1c(-c2cccnc2[C@H](C)OC)c2c3cc(ccc31)-c1cc(O)cc(c1)C[C@H](NC(=O)[C@H](C(C)C)N(C)C(=O)[C@H]1CCN(C(=O)OC3COC3)C1)C(=O)N1CCC[C@H](N1)C(=O)OCC(C)(C)C2 [Example A204] | 7.00 to 8.00 | 7.00 to 8.00 | 7.00 to 8.00 | 6.00 to 7.00 | 7.00 to 8.00 | 7.00 to 8.00 | 7.00 to 8.00 | 7.00 to 8.00 | 7.00 to 8.00 | 7.00 to 8.00 | 7.00 to 8.00 | 6.00 to 7.00 | 6.00 to 7.00 | 7.00 to 8.00 | – |
| CCn1c(-c2cccnc2[C@H](C)OC)c2c3cc(ccc31)-c1csc(n1)C[C@H](NC(=O)[C@H](C(C)C)N(C)C(=O)O[C@H]1CCOC1)C(=O)N1CCC[C@H](N1)C(=O)OCC(C)(C)C2 [Example A210] | 7.00 to 8.00 | 6.00 to 7.00 | 6.00 to 7.00 | 5.00 to 6.00 | 5.00 to 6.00 | 5.00 to 6.00 | 5.00 to 6.00 | 5.00 to 6.00 | 6.00 to 7.00 | 6.00 to 7.00 | 6.00 to 7.00 | 6.00 to 7.00 | 6.00 to 7.00 | 6.00 to 7.00 | – |
